The text below walks through data of US20250295570A1, “PEPTIDE HAVING ACTIVITY OF IMPROVING STATE OF SKIN, AND USE THEREOF” (CAREGEN CO., LTD., priority 2021, published 2025).

Type in all cases: cell-based, mouse
In test [1] the test system is NIH3T3 cells. Description: Antioxidant effect on skin cells induced by ultraviolet rays (reactive oxygen species, DCF-DA, FACS). The following applies: 50 μM or 100 μM peptide, 6 J/cm2 ultraviolet rays, 24 hours, FL1 fluorescence by flow cytometry, FIG. 5. The method, then:
In this example, the aim was to confirm the effect of the peptide according to an embodiment on the antioxidant effect of skin cells induced by ultraviolet rays, by evaluating the level of reactive oxygen species in skin cells increased by ultraviolet irradiation.
Specifically, NIH3T3 cells were seeded in a 6-well plate at a density of 5×10^5 cells/well and cultured for 24 hours. The cells were then washed once with serum-free DMEM media, the culture medium was replaced with serum-free DMEM media, and 50 μM or 100 μM of the peptide consisting of the amino acid sequence of SEQ ID NO: 1 was dispensed to the culture medium. The culture medium dispensed with the peptide was cultured in a CO2 incubator at 37° C. for 1 hour, transferred to an e-tube, mixed with 100 ul of PBS, and dispensed into a well plate. Afterwards, using a UV irradiator (VILBER LOURMAT, France), 6 J/cm2 ultraviolet rays were irradiated to NIH3T3 cells. The PBS in the well plate was then removed, 900 μL of the culture medium in which the peptides were dispensed was added, and the plate was cultured in a CO2 incubator at 37° C. for 24 hours. The culture was then treated with DCFG-DA (2′,7′-dichlorofluorescin diacetate), wrapped in foil, and cultured in a CO2 incubator at 37° C. for 30 minutes. […] After washing the centrifuged cells with PBS, FL1 fluorescence values were measured through flow cytometry (FACS, BD, USA). […]
For orientation: A flow cytometer gives signals particle by particle.

The test system of a further test is fibronectin. In words: Expression of extracellular matrix constituent factor fibronectin (RT-PCR) in NIH3T3 cells. To be noted: 50 μM or 100 μM peptide, 24 hours, FIG. 2 and FIG. 3. The method, then:
(§1) In this example, the aim was to confirm the effect of the peptide according to an example on improving endogenous skin aging, including improvement of wrinkles and enhancement of elasticity, etc., by evaluating the expression levels of collagen type 1 (Col1a1), fibronectin, or elastin, which are known components of the dermis.
(§2) Specifically, NIH3T3 cells were seeded in a 6-well plate at a density of 3×10^5 cells/well and cultured for 24 hours. The cells were then washed once with serum-free DMEM media, and the culture medium was replaced with serum-free DMEM media. Thereafter, 50 μM or 100 μM of the peptide consisting of the amino acid sequence of SEQ ID NO: 1 was dispensed into the medium, and cultured in a CO2 incubator at 37° C. for 24 hours. The culture was then washed twice with PBS, and RNA was isolated from the culture using easy blue (iNtRON, Korea). Using an RT kit (Enzynomics, Korea), 1 μg of the isolated RNA was reverse transcribed to synthesize the respective cDNA. Polymerase chain reaction (PCR) was then performed using the cDNAs and primers Col1a1, fibronectin, and elastin. Meanwhile, the untreated group was used as the control group, and the group to which TGF-β1 was added (TGF-β1) was used as the positive control group, the nucleotide sequences of the primers used in this example are shown in Table 2 below.

The test system of test [2] is NIH3T3 cells. In words: Proliferation of skin cells (SRB staining, survival rate of NIH3T3 cells). To be noted: 50 μM or 100 μM peptide, 72 hours, serum-free DMEM, SRB absorbance at 560 nm, FIG. 1. On the procedure:
In this example, the aim was to confirm the effect of a peptide according to an example on proliferation of skin cells, by evaluating changes in survival rate of NIH3T3 cells, which are mouse fibroblasts.
Specifically, NIH3T3 cells were seeded in a […] at a density of 5×10^3 cells/well and cultured for 24 hours. The cells were then washed once with serum-free DMEM media, and the culture medium was replaced with serum-free DMEM media. Then, 50 μM or 100 μM of the peptide consisting of the amino acid sequence of SEQ ID NO: 1 was dispensed into the medium, and cultured in a CO2 incubator at 37° C. for 72 hours. The culture was then washed twice with PBS and treated with 4% paraformaldehyde (PFA) solution for 15 minutes to fix the cultured cells. The culture was then washed twice with distilled water, treated with SRB solution for 1 hour to stain the cells, washed with 1% acetic acid solution, and dried. The dried culture was then dissolved in 20 mM Tris buffer solution and the absorbance at 560 nm was measured using a microplate reader (Molecular Devices, USA). In this example, the untreated group was used as the control group, and the group to which insulin-like growth factor was added (IGF) was used as the positive control group.

Test [3] deals with NIH3T3 cells. Description: Inhibition of apoptosis of skin cells induced by ultraviolet rays (SRB survival rate). The following applies: 50 μM or 100 μM peptide, 6 J/cm2 ultraviolet rays, 72 hours, FIG. 4. On the procedure:
In this example, the aim was to confirm the effect of the peptide according to an example on the inhibition of apoptosis or cell recovery of skin cells induced by ultraviolet rays, by evaluating the change in survival rate of skin cells whose apoptosis was induced by ultraviolet irradiation.
Specifically, NIH3T3 cells were seeded in a […] at a density of 1×10^4 cells/well and cultured for 24 hours. The cells were then washed once with serum-free DMEM media, the culture medium was replaced with serum-free DMEM media, and 50 μM or 100 μM of the peptide consisting of the amino acid sequence of SEQ ID NO: 1 was dispensed to the culture medium. The culture medium dispensed with the peptide was cultured in a CO2 incubator at 37° C. for 1 hour, transferred to an e-tube, mixed with 100 ul of PBS, and dispensed into a well plate. Afterwards, using a UV irradiator (VILBER LOURMAT, France), 6 J/cm2 ultraviolet rays were irradiated to NIH3T3 cells. The PBS in the well plate was then removed, 900 μL of the culture medium in which the peptides were dispensed was added, and the plate was cultured in a CO2 incubator at 37° C. for 72 hours. […] The dried culture was then dissolved in 20 mM Tris buffer solution and the absorbance at 560 nm was measured using a microplate reader (Molecular Devices, USA). […]

The test system of a further test is collagen type 1 (Col1a1). Description: Expression of extracellular matrix constituent factor Col1a1 (RT-PCR) in NIH3T3 cells. The following applies: 50 μM or 100 μM peptide, 24 hours, FIG. 2 and FIG. 3. The method, then: as §1, §2
Another test concerns elastin. In words: Expression of extracellular matrix constituent factor elastin (RT-PCR) in NIH3T3 cells. To be noted: 50 μM or 100 μM peptide, 24 hours, FIG. 2 and FIG. 3. On the procedure:
as §1, §2

Consider SHNFREEPEMRR (Peptide 1) [SEQ ID NO: 1], for which, in the test with NIH3T3 cells [1], the “level of reactive oxygen species in fibroblasts increased by ultraviolet irradiation” value is reported as “reduced”. In the test with fibronectin, the expression of fibronectin entry is reported as “increased”. Moreover, the proliferation of fibroblasts entry with NIH3T3 cells [2] was “promoted”. Moreover, in the test with NIH3T3 cells [3], the “cell survival rate of fibroblasts reduced by ultraviolet irradiation” value was “restored”. Further, the “expression of Col1a1” value in the test on collagen type 1 (Col1a1) is “increased”. For the same sequence, the expression of elastin entry in the test with elastin is on record as “increased”.
